The values below come from patent US10479780B2, “Aminopyrazole derivatives” (Chugai Seiyaku Kabushiki Kaisha, priority 2015, dated 2019).

Experiment [1] concerns the target T1, human Lck enzyme (Homo sapiens, UniProt P06239).
T1 construct: purchased Carna Biosciences, Inc. 08-170
Description: Lck enzyme inhibitory activity (time-resolved fluorometry, biotinylated peptide phosphorylation). Type of experiment: biochemical. The conditions noted are these: read-out: LCK_IC50. As for the experimental part:
(§1) 3. Lck Enzyme Inhibitory Activity Lck inhibitory activity was determined based on activity of inhibiting phosphorylation reaction of a biotinylated peptide (EGPWLEEEEEAYGWMDF) using a human Lck enzyme (manufactured by Carna Biosciences, Inc., cat 08-170). The phosphorylated biotinylated peptide was detected by time-resolved fluorometry using an anti-phosphorylated tyrosine antibody conjugated to europium cryptate, and streptavidin conjugated to XL665, an allophycocyanin derivative. The 50% inhibitory concentration (IC50) was calculated from the inhibition rate relative to the control group without containing the test substance.

Experiment [2] has as its target T2, human Yes1 enzyme (Homo sapiens, UniProt P07947).
T2 construct: made in house
Description: Yes1 enzyme inhibitory activity (time-resolved fluorometry, biotinylated peptide phosphorylation). Type of experiment: biochemical. The conditions noted are these: read-out: YES_IC50. As to the method: as §1, with “1. Yes1” for “3. Lck”, “Yes1” for “Lck”, “prepared using a baculovirus expression system.” for “(manufactured by Carna Biosciences, Inc., cat 08-170).”

Setting [3] is: biotinylated peptide phosphorylation.

Where two headings read alike, the source gives them in different places.

T1 sequence (P06239 whole entry): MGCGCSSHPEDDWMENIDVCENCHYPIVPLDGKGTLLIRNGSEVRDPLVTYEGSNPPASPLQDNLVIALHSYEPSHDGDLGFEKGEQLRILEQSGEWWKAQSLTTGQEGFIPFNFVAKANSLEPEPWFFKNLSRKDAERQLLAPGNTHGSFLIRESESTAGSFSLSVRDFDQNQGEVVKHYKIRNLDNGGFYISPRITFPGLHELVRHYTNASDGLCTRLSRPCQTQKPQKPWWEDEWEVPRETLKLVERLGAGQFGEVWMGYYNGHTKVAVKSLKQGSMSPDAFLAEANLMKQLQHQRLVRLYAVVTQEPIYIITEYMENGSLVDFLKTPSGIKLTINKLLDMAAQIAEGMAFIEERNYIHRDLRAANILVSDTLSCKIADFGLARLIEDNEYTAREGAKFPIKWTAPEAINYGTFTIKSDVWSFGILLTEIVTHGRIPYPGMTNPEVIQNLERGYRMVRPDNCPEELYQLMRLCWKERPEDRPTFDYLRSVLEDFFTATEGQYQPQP
T2 sequence (P07947 whole entry): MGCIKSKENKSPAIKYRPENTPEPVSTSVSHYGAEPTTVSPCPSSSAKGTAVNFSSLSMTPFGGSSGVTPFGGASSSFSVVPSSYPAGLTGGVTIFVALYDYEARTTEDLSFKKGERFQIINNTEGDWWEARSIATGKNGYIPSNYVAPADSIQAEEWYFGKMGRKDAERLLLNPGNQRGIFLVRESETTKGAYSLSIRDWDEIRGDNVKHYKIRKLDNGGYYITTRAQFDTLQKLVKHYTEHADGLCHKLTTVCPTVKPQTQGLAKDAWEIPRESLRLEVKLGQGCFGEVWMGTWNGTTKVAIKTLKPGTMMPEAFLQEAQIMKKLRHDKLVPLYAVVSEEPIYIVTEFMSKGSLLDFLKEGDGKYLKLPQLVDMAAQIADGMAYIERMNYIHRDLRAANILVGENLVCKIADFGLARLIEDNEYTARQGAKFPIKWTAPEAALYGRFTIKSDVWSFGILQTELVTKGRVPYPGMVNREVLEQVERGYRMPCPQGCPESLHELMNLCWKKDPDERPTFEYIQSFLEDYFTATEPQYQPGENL

For `Cc1cc(-n2ncc(C(=O)c3cc4cc(F)c(NS(C)(=O)=O)cc4[nH]3)c2N)cnc1Oc1ccccc1Cl` [Example 5-1-041, N-[2-[5-amino-1-[6-(2-chlorophenoxy)-5-methylpyridin-3-yl]pyrazole-4-carbonyl]-5-fluoro-1H-indol-6-yl]methanesulfonamide], the IC50 in experiment [1] was found to be 2000 nM; in experiment [2], 93 nM.

On to `Cc1cc(-n2ncc(C(=O)c3cc4cc(F)c(NS(C)(=O)=O)cc4[nH]3)c2N)cnc1Oc1cccc(Cl)c1` [Example 5-1-042, N-[2-[5-amino-1-[6-(3-chlorophenoxy)-5-methylpyridin-3-yl]pyrazole-4-carbonyl]-5-fluoro-1H-indol-6-yl]methanesulfonamide], for which the IC50 was found to be 1900 nM in experiment [1] and 270 nM in experiment [2].

In the case of `Cc1cc(-n2ncc(C(=O)c3cc4cc(F)c(NS(C)(=O)=O)cc4[nH]3)c2N)cnc1Oc1c(F)cccc1Cl` [Example 5-1-043, N-[2-[5-amino-1-[6-(2-chloro-6-fluorophenoxy)-5-methylpyridin-3-yl]pyrazole-4-carbonyl]-5-fluoro-1H-indol-6-yl] methanesulfonamide], the IC50 was found to be 2600 nM in experiment [1] and 38 nM in experiment [2].

Regarding `Cc1cc(-n2ncc(C(=O)c3cc4cc(F)c(NS(C)(=O)=O)cc4[nH]3)c2N)cnc1Oc1cccc(F)c1F` [Example 5-1-044, N-[2-[5-amino-1-[6-(2,3-difluorophenoxy)-5-methylpyridin-3-yl]pyrazole-4-carbonyl]-5-fluoro-1H-indol-6-yl]methanesulfonamide], the IC50 turned out to be 2700 nM in experiment [1] and 52 nM in experiment [2].

Turning to `Cc1cc(-n2ncc(C(=O)c3cc4cc(F)c(NS(C)(=O)=O)cc4[nH]3)c2N)cnc1Oc1cc(F)cc(F)c1` [Example 5-1-045, N-[2-[5-amino-1-[6-(3,5-difluorophenoxy)-5-methylpyridin-3-yl]pyrazole-4-carbonyl]-5-fluoro-1H-indol-6-yl]methanesulfonamide], the IC50 came to 4400 nM in experiment [1] and 210 nM in experiment [2].

In the case of `Cc1cc(-n2ncc(C(=O)c3cc4cc(OCC(F)F)c(Br)cc4[nH]3)c2N)ccc1Oc1ccccc1F` [Example 5-1-150, [5-amino-1-[4-(2-fluorophenoxy)-3-methylphenyl]pyrazol-4-yl]-[6-bromo-5-(2,2-difluoroethoxy)-1H-indol-2-yl]methanone], the IC50 in experiment [1] stood at 320 nM; in experiment [2], 4.8 nM.

Consider `Cc1cc(-n2ncc(C(=O)c3cc4cc(OC(F)F)c(Br)cc4[nH]3)c2N)ccc1Oc1ccccc1F` [Example 5-1-152, [5-amino-1-[4-(2-fluorophenoxy)-3-methylphenyl]pyrazol-4-yl]-[6-bromo-5-(difluoromethoxy)-1H-indol-2-yl]methanone], for which the IC50 in experiment [1] turned out to be 7800 nM; in experiment [2] it was 7.3 nM.

With `Cc1cc2cc(C(=O)c3cnn(-c4cc(C)c(Oc5ccccc5F)cc4F)c3N)[nH]c2cc1NS(C)(=O)=O` [Example 5-1-206, N-[2-[5-amino-1-[2-fluoro-4-(2-fluorophenoxy)-5-methylphenyl]pyrazole-4-carbonyl]-5-methyl-1H-indol-6-yl]methanesulfonamide], the IC50 in experiment [2] worked out at 9.1 nM.

As for `Cc1cc2cc(C(=O)c3cnn(-c4ccc(Oc5cccc(F)c5)c(C)c4)c3N)[nH]c2cc1NS(C)(=O)=O` [Example 5-1-211, N-[2-[5-amino-1-[4-(3-fluorophenoxy)-3-methylphenyl]pyrazole-4-carbonyl]-5-methyl-1H-indol-6-yl]methanesulfonamide], the IC50 in experiment [1] turned out to be 4400 nM; in experiment [2] it was 26 nM.

As to `Cc1cc(-n2ncc(C(=O)c3cc4cc(OCC(F)F)c(-c5cccs5)cc4[nH]3)c2N)ccc1Oc1ccccc1F` [Example 5-1-256, [5-amino-1-[4-(2-fluorophenoxy)-3-methylphenyl]pyrazol-4-yl]-[5-(2,2-difluoroethoxy)-6-thiophen-2-yl-1H-indol-2-yl] methanone], the IC50 in experiment [2] was 120 nM.

Turning to `Cc1cc(-n2ncc(C(=O)c3cc4cc(OC5CCN(C6CS(=O)(=O)C6)CC5)c(-c5ccccc5Cl)cc4[nH]3)c2N)ccc1Oc1ccccc1F` [Example 5-1-289, [5-amino-1-[4-(2-fluorophenoxy)-3-methylphenyl]pyrazol-4-yl]-[6-(2-chlorophenyl)-5-[1-(1,1-dioxothietan-3-yl)piperidin-4-yl]oxy-1H-indol-2-yl]methanone], the values for the IC50 in experiment [1] and in experiment [2] were 400 nM and 3.4 nM, respectively.

Turning to `Cc1cc2cc(C(=O)c3cnn(-c4ccc(Oc5ccccc5F)c(C)c4)c3N)[nH]c2cc1NS(C)(=O)=O` [Example 5-1-307, N-[2-[5-amino-1-[4-(2-fluorophenoxy)-3-methylphenyl]pyrazole-4-carbonyl]-5-methyl-1H-indol-6-yl]methanesulfonamide], the values for the IC50 in experiment [1] and in experiment [2] were 720 nM and 26 nM, respectively.

Regarding `Cc1cc(-n2ncc(C(=O)c3cc4cc(OC5CCN(C6CS(=O)(=O)C6)CC5)c(-c5ccccc5C)cc4[nH]3)c2N)ccc1Oc1ccccc1F` [Example 5-1-336, [5-amino-1-[4-(2-fluorophenoxy)-3-methylphenyl]pyrazol-4-yl]-[5-[1-(1,1-dioxothietan-3-yl)piperidin-4-yl]oxy-6-(2-methylphenyl)-1H-indol-2-yl]methanone], the IC50 is 240 nM in experiment [1] and 4.2 nM in experiment [2].

In the case of `Cc1cc(-n2ncc(C(=O)c3cc4cc(OC5CCN(C6CS(=O)(=O)C6)CC5)c(-c5ccccc5C(F)(F)F)cc4[nH]3)c2N)ccc1Oc1ccccc1F` [Example 5-1-386, (5-amino-1-(4-(2-fluorophenoxy)-3-methylphenyl)-1H-pyrazol-4-yl)(5-((1-(1,1-dioxidothietan-3-yl)piperidin-4-yl)oxy)-6-(2-(trifluoromethyl)phenyl)-1H-indol-2-yl)methanone], the IC50 in experiment [1] worked out at 1000 nM; in experiment [2], 3.9 nM.

As for `Cc1cc(-n2ncc(C(=O)c3cc4cc(C)c(N5C(=O)NC6(CCCCC6)C5=O)cc4[nH]3)c2N)ccc1Oc1ccccc1F` [Example 5-1-470, 3-[2-[5-amino-1-[4-(2-fluorophenoxy)-3-methylphenyl]pyrazole-4-carbonyl]-5-methyl-1H-indol-6-yl]-1,3-diazaspiro[4.5]decane-2,4-dione], the results for the IC50 in experiment [1] (setting [3]) and in experiment [2] (setting [3]) were 870 nM and 31 nM, respectively.

With `Cc1cc(-n2ncc(C(=O)c3cc4cc(C)c(N5C(=O)NC6(CCN(C(=O)OC(C)(C)C)CC6)C5=O)cc4[nH]3)c2N)ccc1Oc1ccccc1F` [Example 5-1-471, tert-Butyl 3-[2-[5-amino-1-[4-(2-fluorophenoxy)-3-methylphenyl]pyrazole-4-carbonyl]-5-methyl-1H-indol-6-yl]-2,4-dioxo-1,3,8-triazaspiro[4.5]decane-8-carboxylate], the IC50 amounted to 980 nM in experiment [1] (setting [3]) and 81 nM in experiment [2] (setting [3]).

On to `Cc1cc(-n2ncc(C(=O)c3cc4cc(C)c(N5C(=O)NC(C)(C(F)(F)F)C5=O)cc4[nH]3)c2N)ccc1Oc1ccccc1F` (centres unmarked) [Example 5-1-472, 3-[2-[5-amino-1-[4-(2-fluorophenoxy)-3-methylphenyl]pyrazole-4-carbonyl]-5-methyl-1H-indol-6-yl]-5-methyl-5-(trifluoromethyl) imidazolidine-2,4-dione], for which the figures for the IC50 in experiment [1] (setting [3]) and in experiment [2] (setting [3]) were 710 nM and 40 nM, respectively.
